This is an account of results in ChEMBL document CHEMBL1201862, “PubChem BioAssay data set” (2004).

Among the test systems are A549; CAKI-1; COLO 205; DU-145; HCT-116; K562; LOX IMVI; MCF7; MDA-MB-231; Malme-3M; OVCAR-3; SF-268; SF-539; SK-MEL-28; SK-MEL-5; SK-OV-3; SN12C; SNB-19; T47D.
Common to all, as to experiment: growth of human tumour cells (NCI), 48 h

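48-hour exposure; five concentrations; linearly interpolated endpoints. GI50 = concentration required for 50% inhibition of growth.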 Calls of active or inactive are those of the source. Rule as the data show it: active = GI50 up to about 1.1 µM and inactive = higher. Where only a bound is given, the exact number is not on record here.

Consider `COc1cccc([C@H]2CC(=O)c3cc4c(cc3N2)OCO4)c1`, for which the GI50 in the test on A549 is 0.296 µM (active); in the test with CAKI-1, 0.384 µM (active); with COLO 205, 0.296 µM (active); in the test with DU-145 it was 0.397 µM (active); in the test with HCT-116 it was 0.352 µM (active); in the test on K562, 1.3 µM (inactive). Also, the GI50 with LOX IMVI is 0.714 µM (active); in the test with MCF7 it was 0.552 µM (active); with MDA-MB-231 it was 0.424 µM (active); in the test with Malme-3M, 0.671 µM (active); in the test on OVCAR-3 it was 0.598 µM (active); in the test on SF-268 it was 0.646 µM (active). In addition, the GI50 is 0.274 µM (active) with SF-539; 4.82 µM (inactive) with SK-MEL-28; 0.216 µM (active) with SK-MEL-5; 0.419 µM (active) in the test with SK-OV-3; 0.394 µM (active) in the test with SN12C; 0.312 µM (active) with SNB-19. Besides, in the test on T47D, the GI50 was > 100 µM (inactive).

In the case of `NC(=O)c1nnc2cc(F)ccc2c1N`, the GI50 in the test on A549 is > 100 µM (inactive); in the test on CAKI-1, 91.2 µM (inactive); in the test on COLO 205, > 100 µM (inactive); in the test with DU-145 it was > 100 µM (inactive); in the test on HCT-116, > 100 µM (inactive); in the test with K562, > 100 µM (inactive). For the same compound, the GI50 is 78.3 µM (inactive) in the test on LOX IMVI; > 100 µM (inactive) in the test on MCF7; > 100 µM (inactive) with MDA-MB-231; > 100 µM (inactive) in the test on Malme-3M; > 100 µM (inactive) in the test with OVCAR-3; > 100 µM (inactive) in the test on SF-268. The GI50 with SF-539 was > 100 µM (inactive); in the test with SK-MEL-5, > 100 µM (inactive); with SK-OV-3, 85.5 µM (inactive); with SN12C, > 100 µM (inactive); in the test on SNB-19 it was > 100 µM (inactive); with T47D, > 100 µM (inactive).

Consider `CN(C)/C=N/c1c2ccccc2nc2ccccc12`, for which the GI50 with A549 is 4.61 µM (inactive); in the test on CAKI-1, 18 µM (inactive); in the test with COLO 205, 2.48 µM (inactive); in the test with DU-145 it was 4.83 µM (inactive); with HCT-116 it was 3.57 µM (inactive); with K562, 4.47 µM (inactive). Further, the GI50 with LOX IMVI is 2.44 µM (inactive); in the test on MCF7, 2.54 µM (inactive); in the test with MDA-MB-231, 5.77 µM (inactive); in the test on Malme-3M it was 3.23 µM (inactive); in the test on OVCAR-3, 3.05 µM (inactive); in the test with SF-268, 3.35 µM (inactive). For the same compound, the GI50 in the test on SF-539 is 2.78 µM (inactive); in the test with SK-MEL-28 it was 1.99 µM (inactive); in the test on SK-MEL-5 it was 2.98 µM (inactive); in the test on SK-OV-3, 5.64 µM (inactive); with SN12C, 2.53 µM (inactive); in the test on SNB-19, 4.25 µM (inactive). Moreover, the GI50 in the test on T47D was 2.65 µM (inactive).

In the case of `C=C1CC(O)C2C(=C)C(=O)OC2C2C(C)C(=O)CC12` (stereo unspecified), the GI50 in the test with A549 is 20.3 µM (inactive); in the test with CAKI-1, 4.57 µM (inactive); in the test with COLO 205 it was 7.33 µM (inactive); in the test with DU-145, 15.3 µM (inactive); with HCT-116, 10 µM (inactive); in the test on K562, 5.98 µM (inactive). Moreover, the GI50 with LOX IMVI is 20 µM (inactive); in the test with MCF7 it was 9.4 µM (inactive); with MDA-MB-231, 20.4 µM (inactive); with Malme-3M, 12 µM (inactive); with OVCAR-3 it was 11.6 µM (inactive); in the test on SF-268, 22.2 µM (inactive). For the same compound, the GI50 in the test with SF-539 was 19.7 µM (inactive); with SK-MEL-28, 14.3 µM (inactive); in the test on SK-MEL-5, 20.7 µM (inactive); with SK-OV-3, 33 µM (inactive); in the test with SN12C it was 15.5 µM (inactive); in the test with SNB-19, 18.8 µM (inactive). In addition, in the test with T47D, the GI50 was 16.9 µM (inactive).

Regarding `Cc1c(C#N)c2nnn(-c3cccc(Cl)c3)c(=O)n2c1-c1ccccc1`, the GI50 in the test with A549 is 4.5 µM (inactive); in the test on CAKI-1, 6.62 µM (inactive); with COLO 205, 0.849 µM (active); with DU-145 it was 3.46 µM (inactive); in the test with HCT-116 it was 2.03 µM (inactive); in the test with K562, 0.541 µM (active). In addition, the GI50 was 7.5 µM (inactive) in the test on LOX IMVI; 4.02 µM (inactive) in the test on MCF7; 1.57 µM (inactive) in the test with MDA-MB-231; 9.48 µM (inactive) with Malme-3M; 1.65 µM (inactive) in the test on OVCAR-3; 6.81 µM (inactive) in the test on SF-268. Also, the GI50 is 1.59 µM (inactive) in the test on SF-539; 32.3 µM (inactive) in the test with SK-MEL-28; 3.84 µM (inactive) in the test with SK-MEL-5; 3.08 µM (inactive) in the test with SK-OV-3; 3.83 µM (inactive) in the test on SN12C; 10.3 µM (inactive) in the test on SNB-19. Also, the GI50 in the test with T47D is 4.25 µM (inactive).

With `O=C1Nc2ccc(Br)cc2/C1=N/c1ccc2c(c1)OCO2`, the GI50 is 46.8 µM (inactive) with A549; 20.3 µM (inactive) in the test with CAKI-1; 16.9 µM (inactive) in the test with COLO 205; 34 µM (inactive) in the test with DU-145; 17.4 µM (inactive) with HCT-116; 24.4 µM (inactive) in the test on K562. Also, the GI50 was 23.1 µM (inactive) in the test on LOX IMVI; 16.7 µM (inactive) in the test with MCF7; 19 µM (inactive) with MDA-MB-231; 18.7 µM (inactive) in the test with Malme-3M; 22.1 µM (inactive) in the test with OVCAR-3; 35.2 µM (inactive) in the test on SF-268. The GI50 was 18.5 µM (inactive) in the test with SF-539; 39 µM (inactive) in the test on SK-MEL-28; 16 µM (inactive) in the test on SK-MEL-5; 31.8 µM (inactive) in the test on SK-OV-3; 19 µM (inactive) in the test with SN12C; 74.5 µM (inactive) in the test with SNB-19. Moreover, the GI50 in the test with T47D was 35.9 µM (inactive).

In the case of `CC(C)(Cc1ccccc1)Cc1cc(O)ccc1O`, the GI50 was 23.7 µM (inactive) in the test on A549; 20.7 µM (inactive) in the test on CAKI-1; 19.2 µM (inactive) in the test with COLO 205; 23.1 µM (inactive) with DU-145; 15.8 µM (inactive) with HCT-116; 12.4 µM (inactive) in the test with K562. Also, the GI50 was 13.3 µM (inactive) with LOX IMVI; 23.4 µM (inactive) in the test with MCF7; 20 µM (inactive) in the test with MDA-MB-231; 16.8 µM (inactive) with Malme-3M; 11.8 µM (inactive) with OVCAR-3; 13.9 µM (inactive) in the test with SF-268. The GI50 was 13 µM (inactive) in the test on SF-539; 21.8 µM (inactive) in the test on SK-MEL-28; 24.7 µM (inactive) with SK-OV-3; 16.7 µM (inactive) with SN12C; 17.7 µM (inactive) with SNB-19; 5.9 µM (inactive) in the test with T47D.

In the case of `O/N=C\c1c2c(cc3c1CCC3)CCC2`, the GI50 in the test with A549, in the test with CAKI-1, in the test with COLO 205, with DU-145, in the test with HCT-116 and with K562 was > 100 µM (inactive) each time. Moreover, the GI50 in the test on LOX IMVI, in the test with MCF7, with MDA-MB-231, in the test with Malme-3M, in the test on OVCAR-3 and in the test with SF-268 was > 100 µM (inactive) in each case. In addition, the GI50 with SF-539, in the test with SK-MEL-28, in the test on SK-MEL-5, in the test on SK-OV-3, in the test with SN12C and in the test with SNB-19 was > 100 µM (inactive) throughout. Further, in the test on T47D, the GI50 is 49.5 µM (inactive).

As for `CCOc1ccc2c(c1)c(CC(=O)O)cn2C`, the GI50 with A549, with CAKI-1, in the test with COLO 205, with DU-145, with HCT-116 and in the test on K562 was > 100 µM (inactive) in each case. The GI50 in the test on LOX IMVI, in the test with MCF7, with MDA-MB-231, in the test on Malme-3M, with OVCAR-3 and in the test on SF-268 was > 100 µM (inactive) in each case. The GI50 in the test with SF-539, in the test with SK-MEL-28, in the test on SK-OV-3, with SN12C, with SNB-19 and in the test on T47D was > 100 µM (inactive) each time.

Take `N#C[BH2-][n+]1ccc(C(=O)NNCC(F)(F)F)cc1`: the GI50 in the test on A549, with CAKI-1, in the test on COLO 205, in the test on DU-145, with HCT-116 and with K562 was > 100 µM (inactive) in each case. The GI50 with LOX IMVI, in the test on MCF7, in the test with MDA-MB-231, in the test with Malme-3M, in the test with OVCAR-3 and with SF-268 was > 100 µM (inactive) each time. Moreover, the GI50 with SF-539, with SK-MEL-28, with SK-MEL-5, in the test on SK-OV-3, with SN12C and with SNB-19 was > 100 µM (inactive) throughout. Further, in the test on T47D, the GI50 was > 100 µM (inactive).

As to `OC1(c2ccc(Cl)cc2)c2ccccc2C2=NCc3ccccc3CN21` (stereo unspecified), the GI50 with A549 was 4.58 µM (inactive); with CAKI-1, 12.3 µM (inactive); in the test on COLO 205, 4.9 µM (inactive); in the test on DU-145, 17.9 µM (inactive); with HCT-116 it was 6.62 µM (inactive); in the test with K562, 2.68 µM (inactive). The GI50 is 9.2 µM (inactive) in the test on LOX IMVI; 4.8 µM (inactive) in the test on MCF7; 16.6 µM (inactive) in the test with MDA-MB-231; 13.9 µM (inactive) in the test on Malme-3M; 1.7 µM (inactive) with OVCAR-3; 12.4 µM (inactive) in the test on SF-268. The GI50 is 7.13 µM (inactive) in the test on SF-539; 2.75 µM (inactive) with SK-MEL-28; 13.2 µM (inactive) in the test on SK-MEL-5; 1.22 µM (inactive) in the test with SK-OV-3; 17.5 µM (inactive) with SN12C; 3.51 µM (inactive) with SNB-19. The GI50 in the test on T47D is 23.3 µM (inactive).
